Test results reported in EP4624465A1, “COMPOUND SERVING AS DDR1 KINASE INHIBITOR, AND MEDICINE” (Nippon Shinyaku Co., Ltd., priority 2022, dated 2024).
pIC50: −log10 of the molar value.

What follows are molecules tested against DDR1 kinase (Homo sapiens, UniProt Q08345) (assay: Evaluation of DDR1 kinase inhibition (LANCE Ultra TR-FRET kinase assay)). Conditions: DDR1 protein 0.5 nM, LANCE Ultra ULight-poly GAT substrate, 2 hours at room temperature, duplicate; read-out: DDR-1 IC50.
Format: biochemical
Set-up: purchased Carna Biosciences 08-113

Chain of DDR1 kinase (Q08345 19-876 isoform Q08345-2 limits assumed): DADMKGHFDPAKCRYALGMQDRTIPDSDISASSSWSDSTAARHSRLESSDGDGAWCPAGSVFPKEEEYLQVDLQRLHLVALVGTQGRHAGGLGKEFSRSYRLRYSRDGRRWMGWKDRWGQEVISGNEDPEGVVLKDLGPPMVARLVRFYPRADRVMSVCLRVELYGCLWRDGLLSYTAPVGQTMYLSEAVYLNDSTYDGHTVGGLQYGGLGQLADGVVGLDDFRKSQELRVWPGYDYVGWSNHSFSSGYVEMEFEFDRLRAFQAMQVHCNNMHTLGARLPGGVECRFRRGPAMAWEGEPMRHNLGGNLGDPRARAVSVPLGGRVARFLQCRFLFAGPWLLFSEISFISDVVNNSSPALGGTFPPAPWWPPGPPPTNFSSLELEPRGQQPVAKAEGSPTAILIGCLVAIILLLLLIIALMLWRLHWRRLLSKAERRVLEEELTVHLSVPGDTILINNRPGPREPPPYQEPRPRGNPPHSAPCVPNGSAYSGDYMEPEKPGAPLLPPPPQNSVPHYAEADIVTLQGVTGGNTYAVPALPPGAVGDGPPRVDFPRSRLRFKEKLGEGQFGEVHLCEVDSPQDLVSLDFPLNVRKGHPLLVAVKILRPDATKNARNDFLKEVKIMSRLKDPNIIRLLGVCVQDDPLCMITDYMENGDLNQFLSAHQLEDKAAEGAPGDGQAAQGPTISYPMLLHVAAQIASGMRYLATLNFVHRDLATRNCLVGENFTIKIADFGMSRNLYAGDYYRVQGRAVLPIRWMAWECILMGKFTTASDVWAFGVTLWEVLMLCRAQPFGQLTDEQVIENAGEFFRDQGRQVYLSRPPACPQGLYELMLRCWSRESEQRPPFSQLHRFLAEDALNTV

| SMILES | pIC50 |
| --- | --- |
| CO[C@@H]1CCN(C(=O)Cn2nc(C3CN(C(=O)c4cc(N)ncc4F)C3)c3ccccc32)C1 [Compound E-231, 2-{3-[1-(2-amino-5-fluoropyridine-4-carbonyl)azetidin-3-yl]-1H-indazol-1-yl}-1-1(3R)-3-methoxypyrrolidin-1-yllethan-1-one] | 7.52 |
| Nc1cc(C(=O)N2CC(c3nn(CC(=O)N4CCC5(COC5)C4)c4ccccc34)C2)c(F)cn1 [Compound E-232, 2-{3-[1-(2-amino-5-fluoropyridine-4-carbonyl)azetidin-3-yl]-1H-indazol-1-yl}-1-{2-oxa-6-azaspiro[3.4]octan-6-yl}ethan-1-one] | 7.42 |
| Nc1cc(C(=O)N2CC(c3nn(CC(=O)NC4CCOCC4)c4ccccc34)C2)ccn1 [Compound E-233, 2-{3-[1-(2-aminopyridine-4-carbonyl)azetidin-3-yl]-1H-indazol-1-yl}-N-(oxan-4-yl)acetamide] | 6.30 |
| CC(C)(NC(=O)Cn1nc(C2CN(C(=O)c3ccnc(N)c3)C2)c2ccccc21)C1CC1 [Compound E-234, 2-{3-[1-(2-aminopyridine-4-carbonyl)azetidin-3-yl]-1H-indazol-1-yl}-N-(2-cyclopropylpropan-2-yl)acetamide] | 8.10 |
| Nc1cc(C(=O)N2CC(c3nn(CC(=O)NC4CCC(F)(F)CC4)c4ccccc34)C2)ccn1 [Compound E-235, 2-{3-[1-(2-aminopyridine-4-carbonyl)azetidin-3-yl]-1H-indazol-1-yl}-N-(4,4-difluorocyclohexyl)acetamide] | 7.23 |
| Nc1cc(C(=O)N2CC(c3nn(CC(=O)NC4CC5CCC4C5)c4cccc(F)c34)C2)ccn1 (centres unmarked) [Compound E-238, 2-{3-[1-(2-aminopyridine-4-carbonyl)azetidin-3-yl]-4-fluoro-1H-indazol-1-yl}-N-{bicyclo[2.2.1]heptan-2-yl}acetamide] | 8.25 |
| Nc1cc(C(=O)N2CC(c3nn(CC(=O)NC45CC(C4)C5)c4cccc(F)c34)C2)ccn1 [Compound E-239, 2-{3-[1-(2-aminopyridine-4-carbonyl)azetidin-3-yl]-4-fluoro-1H-indazol-1-yl}-N-{bicyclo[1.1.1]pentan-1-yl}acetamide] | 8.48 |
| Nc1nccc(C(=O)N2CC(c3nn(CC(=O)N4CCC[C@H]4C(F)(F)F)c4ccc(F)cc34)C2)n1 [Compound E-241, 2-{3-[1-(2-aminopyrimidine-4-carbonyl)azetidin-3-yl]-5-fluoro-1H-indazol-1-yl}-1-[(2S)-2-(trifluoromethyl)pyrrolidin-1-yl]ethan-1-one] | 8.37 |
| CCN(CC(F)(F)F)C(=O)Cn1nc(C2CN(C(=O)c3cc(N)ncc3F)C2)c2ccccc21 [Compound E-249, 2-{3-[1-(2-amino-5-fluoropyridine-4-carbonyl)azetidin-3-yl]-1H-indazol-1-yl}-N-ethyl-N-(2,2,2-trifluoroethyl)acetamide] | 8.46 |
| CN(CC1CC(F)(F)C1)C(=O)Cn1nc(C2CN(C(=O)c3cc(N)ncc3F)C2)c2ccccc21 [Compound E-256, 2-{3-[1-(2-amino-5-fluoropyridine-4-carbonyl)azetidin-3-yl]-1H-indazol-1-yl]-N-[(3,3-difluorocyclobutyl)methyl]-N-methylacetamide] | 8.70 |
| Nc1cc(C(=O)N2CC(c3nn(CC(=O)N4CC5CCC(C4)O5)c4ccccc34)C2)c(F)cn1 [Compound E-258, 2-{3-[1-(2-amino-5-fluoropyridine-4-carbonyl)azetidin-3-yl]-1H-indazol-1-yll-1-18-oxa-3-azabicyclo[3.2.1}octan-3-yl]ethan-1-one] | 7.13 |
| Nc1cc(C(=O)N2CC(c3nn(CC(=O)N4CCCC(C(F)(F)F)C4)c4ccccc34)C2)c(F)cn1 (centres unmarked) [Compound E-259, 2-{3-[1-(2-amino-5-fluoropyridine-4-carbonyl)azetidin-3-yl}-1H-indazol-1-yl}-1-[3-(trifluoromethyl)piperidin-1-yl]ethan-1-one] | 8.68 |
| CN1CCN(C(=O)Cn2nc(C3CN(C(=O)c4cc(N)ncc4F)C3)c3ccccc32)CC1 [Compound E-260] | 6.62 |
| CN(CCN1CCOCC1)C(=O)Cn1nc(C2CN(C(=O)c3cc(N)ncc3F)C2)c2ccccc21 [Compound E-264] | 6.77 |
| C[C@@H]1CCC[C@H](C)N1C(=O)Cn1nc(C2CN(C(=O)c3cc(N)ncc3F)C2)c2ccccc21 [Compound E-266, 2·{3-[1-(2-amino-5-fluoropyridine-4-carbonyl)azetidin-3-yl]-1H-indazol-1-yl}-1-[(2R,68)-2,6-dimethylpiperidin-1-yl]ethan-1-one] | 8.35 |
| CC(C)N(C(=O)Cn1nc(C2CN(C(=O)c3cc(N)ncc3F)C2)c2ccccc21)C(C)C [Compound E-267, 2-{3-[1-(2-amino-5-fluoropyridine-4-carbonyl)azetidin-3-yl]-1H-indazol-1-yl}-N,N-bis(propan-2-yl)acetamide] | 8.21 |
| CN(C(=O)Cn1nc(C2CN(C(=O)c3cc(N)ncc3F)C2)c2ccccc21)C(C)(C)C [Compound E-268, 2-{3-[1-(2-amino-5-fluoropyridine-4-carbonyl)azetidin-3-yl]-1H-indazol-1-yl}-N-tert-butyl-N-methylacetamide] | 8.41 |
| CC1(c2nn(CC(=O)N3CCC[C@H]3C(F)(F)F)c3ccccc23)CN(C(=O)c2cc(N)ncc2F)C1 [Compound E-271, 2-{3-[1-(2-amino-5-fluoropyridine-4-carbonyl)-3-methylazetidin-3-yl]-1H-indazol-1-yl}-1-[(2S)-2-(trifluoromethyl)pyrrolidin-1-yl]ethan-1-one] | 8.40 |

Further lines, results first:

| pIC50 | SMILES |
| --- | --- |
| 7.22 | CN(CC(F)(F)F)C(=O)Cn1nc(C2(C)CN(C(=O)c3ccnc(N)c3)C2)c2ccccc21 [Compound E-273, 2-{3-[1-(2-aminopyridine-4-carbonyl)-3-methylazetidin-3-yl]-1H-indazol-1-yl}-N-methyl-N-(2,2,2-trifluoroethyl)acetamide] |
| 8.16 | CN(CC(F)(F)F)C(=O)Cn1nc(C2CN(C(=O)c3nc(N)ncc3F)C2)c2cc(F)ccc21 [Compound E-278, 2-{3-[1-(2-amino-5-fluoropyrimidine-4-carbonyl)azetidin-3-yl]-5-fluoro-1H-indazol-1-yl}-N-methyl-N-(2,2,2-trifluoroethyl)acetamide] |
| 9.05 | Nc1cc(C(=O)N2CC(c3nn(CC(=O)N4CCC[C@H]4C(F)(F)F)c4cc(F)c(F)cc34)C2)c(F)cn1 [Compound E-280] |
| 7.96 | Nc1cc(C(=O)N2CC(O)(c3nn(CC(=O)N4CCC[C@H]4C(F)(F)F)c4ccccc34)C2)c(F)cn1 [Compound E-281, 2-{3-[1-(2-amino-5-fluoropyridine-4-carbonyl)-3-hydroxyazetidin-3-yl]-1H-indazol-1-yl}-1-[(28)-2-(trifluoromethyl)pyrrolidin-1-yl]ethan-1-one] |
| 7.28 | CN(CC(F)(F)F)C(=O)Cn1nc(C2CN(C(=O)c3ccnc(N)n3)C2)c2cc(F)c(F)cc21 [Compound E-282, 2-{3-[1-(2-aminopyrimidine-4-carbonyl)azetidin-3-yl]-5,6-difluoro-1H-indazol-1-yl}-N-methyl-N-(2,2,2-trifluoroethyl)acetamide] |
| 8.35 | Nc1nccc(C(=O)N2CC(c3nn(CC(=O)N4CCC[C@H]4C(F)(F)F)c4cc(F)c(F)cc34)C2)n1 [Compound E-283, 2-{3-[1-(2-aminopyrimidine-4-carbonyl)azetidin-3-yl]-5,6-diffuoro-1H-indazol-1-yl}-1-[(2S)-2-(trifluoromethyl)pyrrolidin-1-yl}ethan-1-one] |
| 7.27 | CN(CC(F)(F)F)C(=O)Cn1nc(C2CN(C(=O)c3ccnc(N)n3)C2)c2ccc(F)cc21 [Compound E-284, 2-{3-[1-(2-aminopyrimidine-4-carbonyl)azetidin-3-yl]-6-fluoro-1H-indazol-1-yl}-N-methyl-N-(2,2,2-trifluoroethyl)acetamide] |
| 8.89 | Nc1cc(C(=O)N2CC(F)(c3nn(CC(=O)N4CCC[C@H]4C(F)(F)F)c4ccccc34)C2)c(F)cn1 [Compound E-285, 2-(3-[1-(2-amino-5-fluoropyridine-4-carbonyl)-3-fluoroazetidin-3-yl]-1H-indazol-1-yl}-1-[(2S)-2-(trifluoromethyl)pyrrolidin-1-yl]ethan-1-one] |
| 8.30 | Nc1nccc(C(=O)N2CC(c3nn(CC(=O)N4CCC[C@H]4C(F)(F)F)c4cc(F)ccc34)C2)n1 [Compound E-286, 2-{3-[1-(2-aminopyrimidine-4-carbonyl)azetidin-3-yl]-6-fluoro-1H-indazol-1-yl}-1-[(2S)-2-(trifluoromethyl)pyrrolidin-1-yl]ethan-1-one] |
| 8.11 | CN(CC(F)(F)F)C(=O)Cn1nc(C2CN(C(=O)c3ccnc(N)n3)C2)c2c(Cl)c(F)ccc21 [Compound E-287, 2-{3-(1-(2-aminopyrimidine-4-carbonyl)azetidin-3-yl]-4-chloro-5-fluoro-1H-indazol-1-yl}-N-methyl-N-(2,2,2-trifluoroethyl)acetamide] |
| 7.85 | Cc1ccc2c(c1)c(C1CN(C(=O)c3ccnc(N)n3)C1)nn2CC(=O)N(C)CC(F)(F)F [Compound E-288, 2-{3-[1-(2-aminopyrimidine-4-carbonyl)azetidin-3-yl]-5-methyl-1H-indazol-1-yl}-N-methyl-N-(2,2,2-trifluoroethyl)acetamide] |
| 7.35 | CN(CC(F)(F)F)C(=O)Cn1nc(C2CN(C(=O)c3ccnc(N)n3)C2)c2c(F)cc(F)cc21 [Compound E-289, 2-{3-[1-(2-aminopyrimidine-4-carbonyl)azetidin-3-yl]-4,6-difluoro-1H-indazol-1-yl)-N-methyl-N-(2,2,2-trifluoroethyl)acetamide] |
| 8.80 | Nc1nccc(C(=O)N2CC(c3nn(CC(=O)N4CCC[C@H]4C(F)(F)F)c4ccc(Cl)cc34)C2)n1 [Compound E-290, 2-{3-[1-(2-aminopyrimidine-4-carbonyl)azetidin-3-yl]-5-chloro-1H-indazol-1-yl}-1-[(28)-2-(trifluoromethyl)pyrrolidin-1-yl]ethan-1-one] |
| 8.59 | COc1ccc2c(c1)c(C1CN(C(=O)c3cc(N)ncc3F)C1)nn2CC(=O)N1CCC[C@H]1C(F)(F)F [Compound E-291, 2-(3-(1-(2-amino-5-fluoropyridine-4-carbonyl)azetidin-3-yl]-5-methoxy-1H-indazol-1-yl}·1-[(2S)-2-(trifluoromethyl)pyrrolidin-1-yl]ethan-1-one] |
